The test concerns the target T1, human Flt-3 (Homo sapiens, UniProt P36888).
T1 construct: expresses the amino acid region amino acids 563-993 of the intra-cytoplasmic kinase domains of human Flt-3; made in house; host or cells: Sf9 insect cells (baculovirus, pFbacG01 donor vector)
T1 sequence (P36888 563-993): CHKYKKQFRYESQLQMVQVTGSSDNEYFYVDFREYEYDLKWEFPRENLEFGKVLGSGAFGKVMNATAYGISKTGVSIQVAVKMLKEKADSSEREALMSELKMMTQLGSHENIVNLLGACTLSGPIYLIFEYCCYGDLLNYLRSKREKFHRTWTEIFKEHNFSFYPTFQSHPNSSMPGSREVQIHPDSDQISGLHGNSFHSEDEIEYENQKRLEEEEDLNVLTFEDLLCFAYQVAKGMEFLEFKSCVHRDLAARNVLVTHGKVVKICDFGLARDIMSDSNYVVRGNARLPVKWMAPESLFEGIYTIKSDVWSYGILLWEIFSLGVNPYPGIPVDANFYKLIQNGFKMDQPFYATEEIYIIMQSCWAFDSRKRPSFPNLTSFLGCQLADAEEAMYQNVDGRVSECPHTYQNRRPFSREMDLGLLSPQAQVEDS
Briefly: Tyrosine protein kinase assay with purified GST-Flt-3 (33P incorporation). The class given is biochemical. Particulars: at a 1.0 micromolar concentration. As for the experimental part: ATP into appropriate substrates.
The coding sequences for the cytoplasmic domain of Flt-3 was amplified by PCR from human c-DNA libraries (Clontech). The amplified DNA fragments and the pFbacG01 vector were made compatible for ligation by digestion with BamH1 and Hind III. […] The production of the viruses, the expression of proteins in Sf9 cells and the purification of the GST-fused proteins were performed as following:
(Generation of Bac- to Bac GST-fusion vectors); pFbacG01, pFbacGST2T and pFbacGSTx3 Bac-to-Bac™ donor vectors were generated from pAcG1, pAcG2T and pAcG3X respectively, which facilitate the expression of GST-fusion proteins with the possibility of cleavage with thrombin (pFbacGT2) or factor Xa (pFbacGSTx3) while pFbacG01 expresses no proteolytic cleavage site. These were generated in house by isolation of the DNA fragment containing the gene for GST with the C-terminal protease and restriction sites by restriction enzyme digestion of the relevant PharMingen baculovirus donor vector with EcoRV and EcoRI. This EcoRV/EcoRI fragment was ligated into the pFastBac1 vector which had been restriction digested with BamHI, blunt-ended by Klenow reaction and subsequently digested with EcoRI to generate a blunt-ended/EcoRI vector. (Production of virus); Transfer vectors containing the kinase domains were transfected into the DH10Bac cell line (GIBCO) and plated on selective agar plates. Colonies without insertion of the fusion sequence into the viral genome (carried by the bacteria) are blue. Single white colonies were picked and viral DNA (bacmid) isolated from the bacteria by standard plasmid purification procedures. Sf9 cells or Sf21 cells were then transfected in 25 cm^2 flasks with the viral DNA using Cellfectin reagent. (Determination of small scale protein expression in Sf9 cells); Virus containing media was collected from the transfected cell culture and used for infection to increase its titer. Virus containing media obtained after two rounds of infection was used for large-scale protein expression. For large-scale protein expression 100 cm^2 round tissue culture plates were seeded with 5×10^7 cells/plate and infected with 1 mL of virus-containing media (approx. 5 MOIs). After 3 days the cells were scraped off the plate and centrifuged at 500 rpm for 5 min. Cell pellets from 10-20, 100 cm^2 plates, were resuspended in 50 mL of ice-cold lysis buffer (25 mMTris-HCl, pH7.5, 2 mMEDTA, 1% NP-40, 1 mM DTT, 1 mMP MSF). The cells were stirred on ice for 15 min and then centrifuged at 5000 rpms for 20 min.
ATP 0.1 μCi). […] ATP into appropriate substrates. […] Subsequently, 40 μL of the reaction mixture were transferred onto Immobilon-PVDF membrane (Millipore, Bedford, Mass., USA) previously soaked for 5 min with methanol, rinsed with water, then soaked for 5 min with 0.5% H3PO4 and mounted on vacuum manifold with disconnected vacuum source. After spotting all samples, vacuum was connected and each well rinsed with 200 μL 0.5% H3PO4. Membranes were removed and washed 4× on a shaker with 1.0% H3PO4, once with ethanol. Membranes were counted after drying at ambient temperature, mounting in Packard TopCount 96-well frame, and addition of 10 μL/well of Microscint™ (Packard). […] One unit of protein kinase activity is defined as 1 nmole of ^33P ATP transferred from [γ^33P] ATP to the substrate protein per minute per mg of protein at 37° C.

“(9a,10b,11b,13a)-11-[[N-Acetyl-6-O-(methylsulfonyl)-1-O-(phenylmethyl)-a-muramoyl]methylamino]-2,3,10,11,12,13-hexahydro-10-methoxy-9-methyl-, 9,13-epoxy-1H,9H-diindolo[1,2,3-gh:3′,2′,1′-lm]pyrrolo[3,4-j][1,7]benzodiazonin-1-one [149622-41-3]”: the “Flt3 Inhibition (percent inhibition of Flt3 kinase activity)” value came to 51%.

Take “N-[(9S,10R,11R,13R)-2,3,10,11,12,13-Hexahydro-10-methoxy-9-methyl-1-oxo-9,13-epoxy-1H,9H-diindolo[1,2,3-gh:3′,2′,1′-lm]pyrrolo[3,4-j][1,7]benzodiazonin-11-yl]-2-hydroxy-N-methyl-Benzamide [178955-60-7]”: the “Flt3 Inhibition (percent inhibition of Flt3 kinase activity)” value was found to be 89%.

Regarding “(9a,10b,11b,13a)-11-[[N-Acetyl-1-O-(phenylmethyl)-a-isomuramoyl]methylamino]-2,3,10,11,12,13-hexahydro-10-methoxy-9-methyl-9,13-epoxy-1H,9H-diindolo[1,2,3-gh:3′,2′,1′-lm]pyrrolo[3,4-j][1,7]benzodiazonin-1-one [149713-64-4]”, the “Flt3 Inhibition (percent inhibition of Flt3 kinase activity)” value worked out at 76%.

Take “(9a,10b,11b,13a)-11-[[N-Acetyl-4,6-di-O-acetyl-1-O-(phenylmethyl)-a-muramoyl]methylamino]-2,3,10,11,12,13-hexahydro-10-methoxy-9-methyl-9,13-epoxy-1H,9H-diindolo[1,2,3-gh:3′,2′,1′-lm]pyrrolo[3,4-j][1,7]benzodiazonin-1-one [149622-61-7]”: the “Flt3 Inhibition (percent inhibition of Flt3 kinase activity)” value worked out at 70%.

For the compound “11-[[N-Acetyl-1-deoxy-4,6-O-(phenylmethylene)muramoyl]methylamino]-2,3,10,11,12,13-hexahydro-10-methoxy-9-methyl-9,13-epoxy-1H,9H-diindolo[1,2,3-gh:3′,2′,1′-lm]pyrrolo[3,4-j][1,7]benzodiazonin-1-one [149622-49-1]”, the “Flt3 Inhibition (percent inhibition of Flt3 kinase activity)” value is recorded as 74%.

With `COC1C(N(C)C(=O)c2cnccn2)CC2OC1(C)n1c3ccccc3c3c4c(c5c6ccccc6n2c5c31)C(=O)NC4` (stereo not drawn) [155848-17-2, [9S-(9a,10b,11b,13a)]-N-(2,3,10,11,12,13-Hexahydro-10-methoxy-9-methyl-1-oxo-9,13-epoxy-1H,9H-diindolo[1,2,3-gh:3′,2′,1′-lm]pyrrolo[3,4-g][1,7]benzodiazonin-11-yl)-N-methyl-pyrazinecarboxamide], the “Flt3 Inhibition (percent inhibition of Flt3 kinase activity)” value amounted to 85%.

With `COC1C(N(C)C(=O)C(C)OC2CCOCC2)CC2OC1(C)n1c3ccccc3c3c4c(c5c6ccccc6n2c5c31)C(=O)NC4` (stereo not drawn) [160335-31-9, [9S-[9a,10b,11b(R*),13a]]-N-(2,3,10,11,12,13-Hexahydro-10-methoxy-9-methyl-1-oxo-9,13-epoxy-1H,9H-diindolo[1,2,3-gh:3′,2′,1′-lm]pyrrolo[3,4-j][1,7]benzodiazonin-11-yl)-N-methyl-2-[(tetrahydro-2H-pyran-4-yl)oxy]-propanamide], the “Flt3 Inhibition (percent inhibition of Flt3 kinase activity)” value was found to be 90%.

`COC1C(N(C)C(=O)CCN)CC2OC1(C)n1c3ccccc3c3c4c(c5c6ccccc6n2c5c31)C(=O)NC4.Cl` (stereo not drawn) [124078-41-7, [9S-(9a,10b,11b,13a)]-3-Amino-N-(2,3,10,11,12,13-hexahydro-10-methoxy-9-methyl-1-oxo-9,13-epoxy-1H,9H-diindolo[1,2,3-gh:3′,2′,1′-lm]pyrrolo[3,4-j][1,7]benzodiazonin-11-yl)-N-methyl-propanamide, monohydrochloride]: the “Flt3 Inhibition (percent inhibition of Flt3 kinase activity)” value worked out at 99%.

For the compound “(9a,10b,11b,13a)-11-[[N-Acetyl-1-O-(phenylmethyl)-a-muramoyl]methylamino]-2,3,10,11,12,13-hexahydro-10-methoxy-9-methyl-9,13-epoxy-1H,9H-diindolo[1,2,3-gh:3′,2′,1′-lm]pyrrolo[3,4-j][1,7]benzodiazonin-1-one [149622-39-9]”, the “Flt3 Inhibition (percent inhibition of Flt3 kinase activity)” value is given as 72%.

Take `CO[C@@H]1[C@H](N(C)C(=O)c2ccccc2)C[C@H]2O[C@]1(C)n1c3ccccc3c3c4c(c5c6ccccc6n2c5c31)C(=O)NC4O` (stereo partly shown) [179237-49-1, N-(2,3,10,11,12,13-Hexahydro-3-hydroxy-10-methoxy-9-methyl-1-oxo-9,13-epoxy-1H,9H-diindolo[1,2,3-gh:3′,2′,1′-lm]pyrrolo[3,4-j][1,7]benzodiazonin-11-yl)-N-methyl-benzamide]: the “Flt3 Inhibition (percent inhibition of Flt3 kinase activity)” value was determined as 41%.

Regarding `CO[C@@H]1[C@H](N(C)C(=O)CNC(=O)OC(C)(C)C)C[C@H]2O[C@]1(C)n1c3ccccc3c3c4c(c5c6ccccc6n2c5c31)C(=O)NC4` [124078-43-9, [9S-(9a,10b,11b,13a)]-[2-[(2,3,10,11,12,13-Hexahydro-10-methoxy-9-methyl-1-oxo-9,13-epoxy-1H,9H-diindolo[1,2,3-gh:3′,2′,1′-lm]pyrrolo[3,4-j][1,7]benzodiazonin-11-yl)methylamino]-2-oxoethyl]-carbamic acid, 1,1-dimethylethyl ester], the “Flt3 Inhibition (percent inhibition of Flt3 kinase activity)” value is 65%.

On to `CO[C@@H]1/C(=N/O)C[C@H]2O[C@]1(C)n1c3ccccc3c3c4c(c5c6ccccc6n2c5c31)C(=O)NC4` [126221-76-9, (9S,10R,11Z,13R)-2,3,9,10,12,13-Hexahydro-10-methoxy-9-methyl-9,13-epoxy-1H,11H-diindolo[1,2,3-gh:3′,2′,1′-lm]pyrrolo[3,4-j][1,7]benzodiazonine-1,11-dione, 11-oxime], for which the “Flt3 Inhibition (percent inhibition of Flt3 kinase activity)” value came out at 83%.

Turning to “[9a,10b,11b(S*),13a]-phenylmethyl 2-(acetylamino)-2-deoxy-3-O-[1-[[(2,3,10,11,12,13-hexahydro-10-methoxy-9-methyl-1-oxo-9,13-epoxy-1H,9H-diindolo[1,2,3-gh:3′,2′,1′-lm]pyrrolo[3,4-j][1,7]benzodiazonin-11-yl)methylamino]carbonyl]propyl]-a-D-Glucopyranoside [149622-45-7]”, the “Flt3 Inhibition (percent inhibition of Flt3 kinase activity)” value is recorded as 43%.

Consider `COC1C(N(C)C(=O)c2cccc([N+](=O)[O-])c2)CC2OC1(C)n1c3ccccc3c3c4c(c5c6ccccc6n2c5c31)C(=O)NC4` (stereo not shown) [120685-15-6, (9a,10b,11b,13a)-N-(2,3,10,11,12,13-Hexahydro-10-methoxy-9-methyl-1-oxo-9,13-epoxy-1H,9H-diindolo[1,2,3-gh:3′,2′,1′-lm]pyrrolo[3,4-j][1,7]benzodiazonin-11-yl)-N-methyl-3-nitro-benzamide], for which the “Flt3 Inhibition (percent inhibition of Flt3 kinase activity)” value is 74%.

In the case of “[9S-(9a,10b,11b,13a)]-[3-[(2,3,10,11,12,13-Hexahydro-10-methoxy-9-methyl-1-oxo-9,13-epoxy-1H,9H-diindolo[1,2,3-gh:3′,2′,1′-lm]pyrrolo[3,4-j][1,7]benzodiazonin-11-yl)methylamino]-3-oxopropyl]-carbamic acid, 1,1-dimethylethyl ester [124078-44-0]”, the “Flt3 Inhibition (percent inhibition of Flt3 kinase activity)” value was 87%.

Turning to `COC1C(N(C)C(=O)C(F)(F)F)CC2OC1(C)n1c3ccccc3c3c4c(c5c6ccccc6n2c5c31)C(=O)NC4` [120685-12-3, 2,2,2-Trifluoro-N-[(9S,10R,11R,13R)-2,3,10,11,12,13-hexahydro-10-methoxy-9-methyl-1-oxo-9,13-epoxy-1H,9H-diindolo[1,2,3-gh:3′,2′,1′-lm]pyrrolo[3,4-j][1,7]benzodiazonin-11-yl]-N-methyl-acetamide], the “Flt3 Inhibition (percent inhibition of Flt3 kinase activity)” value was 66%.
